Data published in publication PMC11887451, “Leveraging Immunogenic Cell Death to Enhance the Immune Response against Malignant Pleural Mesothelioma Tumors” (Journal of the American Chemical Society, 2025).

Assays:
[1] = system: patient-derived Meso92 cell line (biphasic MPM); experiment: MTT cytotoxicity assay, 72 h, Meso92; assay type: cell-based, human; conditions: exposure time 72 h
[2] = system: patient-derived VMC23 cell line (epithelioid MPM); experiment: MTT cytotoxicity assay, 72 h, VMC23; assay type: cell-based, human; conditions: exposure time 72 h
[3] = system: human malignant mesothelioma cell line JU77; experiment: MTT cytotoxicity assay, 72 h, JU77; assay type: cell-based; conditions: exposure time 72 h
[4] = system: murine malignant mesothelioma cell line AB12; experiment: MTT cytotoxicity assay, 72 h, AB12; assay type: cell-based, mouse; conditions: exposure time 72 h
Text: (§1) Human malignant mesothelioma cancer cell lines JU77 and LO68 were obtained from Cell Bank Australia (Children's Medical Research Institute, Westmead, Australia). Mouse malignant mesothelioma cancer cell line AB12, human nonmalignant mesothelioma cancer cell line Met5A (mesothelial cells), mouse macrophage cell line J774 and human monocytic cell line THP-1 were obtained from American Type Culture Collection (ATCC) (Rockville, MD, USA). Human malignant mesothelioma cell lines VMC23 (epithelial), Meso82 (sarcomatous), Meso92 (biphasic), were kindly provided by Prof. Walter Berger (Medical University of Vienna). All cells except for J774 were cultured in RPMI and J774 cells were cultured in DMEM. Both types of media were supplemented with 10% FBS and 1% penicillin-streptomycin (10,000 U/mL). Cells were grown in tissue culture flasks (75 cm2 and 25 cm2, SPL Life Sciences Co., Ltd., Korea). All cell lines were grown at 37 °C in a humidified atmosphere of 95% air and 5% CO 2 and passaged when they reached 80–90% confluency. All Au stock solutions were prepared in 1% DMSO in the respected medium, ensuring that cell viability was not inhibited.
(§2) The cytotoxicity of compounds was determined using an MTT colorimetric test. The cells were harvested from culture flasks by trypsinization and seeded into Cellstar 96 -well microculture plates (Greiner Bio -One) at the seeding density of 6000 cells per well (6 × 10^4 cells/mL). After
(§3) the cells were allowed to resume exponential growth for 16 h, they were exposed to drugs at
(§4) different concentrations in media for 72 h. The drugs were diluted in a complete medium at the desired concentration added to each well (100 μL) and serially diluted in other wells. After exposure for 72 h, the media was replaced with MTT in media (5 mg/mL, 100 μL/well) and

[5] = system: human malignant mesothelioma cell line LO68; experiment: MTT cytotoxicity assay, 72 h, LO68; assay type: cell-based; conditions: exposure time 72 h
Text: as §1, §2, §3, §4

[6] = system: patient-derived Meso84 cell line (sarcomatoid MPM); experiment: MTT cytotoxicity assay, 72 h, Meso84; assay type: cell-based, human; conditions: exposure time 72 h
Text: as §1, §2, §3, §4

[7] = system: M0-differentiated THP-1 cells; experiment: MTT-based viability assay on M0-differentiated THP-1 cells, 72 h; assay type: cell-based, human; conditions: 72-h exposure, compared with AB12 cells
Procedure: incubated for an additional 50 min. Subsequently, the medium was aspirated, and the purple formazan crystals formed in viable cells were dissolved in DMSO (100 μL/well). Optical densities were measured at 570 nm using a BioTek Synergy H1 microplate and MultiskanTM SkyHigh plate readers. The quantity of viable cells was expressed in terms of treated/control (T/C) values in comparison to untreated control cells, and 50% inhibitory concentrations (IC 50) were calculated from concentration-effect curves by interpolation. An evaluation was based on means from at least three independent experiments, each comprising three replicat es per […]
For macrophage analyses, the acute monocytic leukemia -derived THP-1 cell line (ATCC) was used as a model. 1 × 104 THP-1 cells were seeded per well in 96-well plates in RPMI-1640 with 10% FCS and treated for 24 h with 75 nM phorbol 12-myristate 13-acetate (PMA, Sigma-Aldrich) to induce M0 macrophage differentiation. After the differentiation period, PMA was replaced by fresh culture medium to recover for 2h. Afterwards increasing concentrations of 1G, 5A, 5B and 5G were added for a 72-h continuous drug exposure assay. In parallel, the murine mesothelioma cell line AB12 was seeded into 96 -well plates at 2.5 × 10^3 cells/well and were allowed to attach for 24 h. Gold compounds were added to the cells as described for the THP-1 model above. After the incubation period of 72 h, cell viability was determined by an MTT-based assay (EU4U, Biomedica) following the instructions of the manufacturer. DMSO had not impact on the cell viability at the concentrations used. […]

[8] = system: human nonmalignant mesothelioma cell line Met5A; experiment: MTT cytotoxicity assay, 72 h, Met5A; assay type: cell-based; conditions: exposure time 72 h
Text: Cell lines and culture conditions
Mouse malignant mesothelioma cancer cell line AB12, human nonmalignant mesothelioma cancer cell line Met5A (mesothelial cells), mouse macrophage cell line J774 and human monocytic cell line THP-1 were obtained from American Type Culture Collection (ATCC) (Rockville, MD, USA). Human malignant mesothelioma cell lines VMC23 (epithelial), Meso82 (sarcomatous), Meso92 (biphasic), were kindly provided by Prof. Walter Berger (Medical University of Vienna). All cells except for J774 were cultured in RPMI and J774 cells were cultured in DMEM. Both types of media were supplemented with 10% FBS and 1% penicillin-streptomycin (10,000 U/mL). Cells were grown in tissue culture flasks (75 cm2 and 25 cm2, SPL Life Sciences Co., Ltd., Korea). All cell lines were grown at 37 °C in a humidified atmosphere of 95% air and 5% CO 2 and passaged when they reached 80–90% confluency. All Au stock solutions were prepared in 1% DMSO in the respected medium, ensuring that cell viability was not inhibited. The Au concentration in the stock solutions was confirmed through inductively coupled plasma optical emission spectrometry. The stock solution of pemetrexed (10 mM) was prepared in Milli -Q water.
Inhibition of c ell viability assay
as §2, §3, §4

[9] = determined from retention time using RP-HPLC
[10] = system: AB12 cells phagocytosed by J774 macrophages; experiment: Phagocytosis assay, flow cytometry; assay type: cell-based, mouse; conditions: AB12 treated 100 min at 5 × IC50 (72 h), 16 h with J774 macrophages
Procedure: page 21: incubated for an additional 50 min. Subsequently, the medium was aspirated, and the purple formazan crystals formed in viable cells were dissolved in DMSO (100 μL/well). Optical densities were measured at 570 nm using a BioTek Synergy H1 microplate and MultiskanTM SkyHigh plate readers. The quantity of viable cells was expressed in terms of treated/control (T/C) values in comparison to untreated control cells, and 50% inhibitory concentrations (IC 50) were calculated from concentration-effect curves by interpolation. An evaluation was based on means from at least three independent experiments, each comprising three […] concentration level. For macrophage analyses, the acute monocytic leukemia -derived THP-1 cell line (ATCC) was used as a model. 1 × 104 THP-1 cells were seeded per well in 96-well plates in RPMI-1640 with 10% FCS and treated for 24 h with 75 nM phorbol 12-myristate 13-acetate (PMA, Sigma- Aldrich) to induce M0 macrophage differentiation. After the differentiation period, PMA was replaced by fresh culture medium to recover for 2h. Afterwards increasing concentrations of 1G, 5A, 5B and 5G were added for a 72-h continuous drug exposure assay. In parallel, the […] were allowed to attach for 24 h. Gold compounds were added to the cells as described for the THP-1 model above. After the incubation period of 72 h, cell viability was determined by an MTT-based assay (EU4U, Biomedica) following the instructions of the manufacturer. DMSO had not impact on the cell viability at the concentrations used. Flow cytometry experiments Phagocytosis assay […] with RPMI, centrifuged (300 × g, 5 min) and labelled with CellTracker Red CMTPX Dye (0.72 μM for 5 × 10^5 cells) at 37°C for 30 minutes in 1 ml of serum -free RPMI. Following S21 page 22: centrifugation of the cells (300 × g, 5 min), 5 ml of fresh RPMI was introduced, and the cells were seeded at a density of 5 x 10^5 cells per well into Cellstar 6-well plates (Greiner Bio-One) (1 ml per well). J774 macrophages (70-80% confluence in a T75 flask) were detached by scraping, centrifuged (300 × g, 5 min). The medium was substituted with 1 ml of DMEM containing CellTracker Green CMFDA (1 μM) and the J774 macrophages were stained at 37°C for 30 minutes. Following centrifugation of the J774 macrophages (300 × g, 5 min), 5 ml of fresh DMEM was introduced, and the macrophages were seeded into a 100 cm2 petri dish (SPL Life Sciences, Korea). After 24 h, the media in AB12 cells was replaced with 1 ml of fresh […] for 100 minutes. After removing the drug-containing media, the cells were trypsinized (0.5 ml), neutralized with 1 ml of RPMI, centrifuged (300 × g, 5 min) and counted. From each sample, […] cells into 6-well plates. AB12 cells and J774 macrophages were co-incubated for 16 h at 37°C and 5% CO2, detached by scraping, centrifuged (300 × g, 5 min), and the pellets were resuspended in PBS for immediate analysis using a CytoFLEX Flow Cytometer (Beckman Coulter, USA). The percentage of phagocytosis was determined by calculating the number of double-positive macrophages (Q2) over the total number of macrophages (Q2 + Q3). […] Annexin V/PI assay AB12 cells were seeded into Cellstar 6-well plates (Greiner Bio-One) at a density of 5 × 10^5 cells/well (1 ml per well). […] The medium was removed and cells were washed with PBS (2 × 1 mL). Afterwards the cells were […] S22

[11] = system: AB12 cells in BALB/c mice; experiment: In vivo vaccination model; parameters: species or system mouse; conditions: within the first 30 days after vaccination, n = 8
Text: Initially, AB12 cells underwent pretreatment with varying concentrations of Au(III) complexes, and the induced cell death and release of desired ICD biomarkers were monitored over time. Upon reaching a cell death rate of 65%–75%, BALB/c mice (n = 8) were subcutaneously injected in the left flank with a vaccine containing 3 × 10^5 of live/dying/dead cells, while the vehicle group received injections of PBS. Seven days postvaccine administration, the immunized mice were rechallenged by inoculating the same number of live AB12 cells (without any prior treatment) into the right flanks (Figure 5A). The progression of tumor growth on the right flanks was monitored using a caliper.
AB12 cells were seeded into Cellstar 24-well plates (Greiner Bio-One) at a density of 1.8 × 104
cells/ml (1 ml per well) and allowed to grow exponentially for 16 hours. Subsequently, the
medium was replaced with 1 ml of fresh medium containing compounds of interest at
predetermined concentrations (with a minimum of 4 wells per treatment condition). These
concentrations were selected to induce 65-75% cell death.
Subsequently, the culture
medium was aspirated, and the cells were washed twice with 1 mL of PBS. The cell
concentration was adjusted to 3 × 10^5 cells (including dead/dying/live cells) per 100 μL of PBS,
and the ratio of dead/live cells was assessed using the Invitrogen Countess 3 cell counter. In
the subsequent experiment, BALB/c mice (8 mice per group) were subcutaneously injected
with 0.1 mL of AB12 cells (3 × 10^5 cells/mL, including dead/dying/live cells) or the
corresponding vehicle (PBS) on the left flank. Tumor growth was monitored daily.
After 7 days, the mice were subcutaneously injected with
0.1 mL of AB12 cells (3 × 10^5 cells/mL, live cells) on the right flank. Regular measurements
of body weights and tumor sizes were taken. Mice that developed palpable tumors were
euthanized for further analysis.

AB12 cells = experiment: Annexin V/PI assay (necrosis), flow cytometry; assay type: cell-based, mouse; conditions: AB12, 5 × IC50 (72 h), short exposure
Procedure: centrifugation of the cells (300 × g, 5 min), 5 ml of fresh RPMI was introduced, and the cells were seeded at a density of 5 x 10^5 cells per well into Cellstar 6-well plates (Greiner Bio-One) (1 ml per well). J774 macrophages (70-80% confluence in a T75 flask) were detached by scraping, centrifuged (300 × g, 5 min). The medium was substituted with 1 ml of DMEM containing CellTracker Green CMFDA (1 μM) and the J774 macrophages were stained at 37°C for 30 minutes. Following centrifugation of the J774 macrophages (300 × g, 5 min), 5 ml of fresh DMEM was introduced, and the macrophages were seeded into a 100 cm2 petri dish (SPL Life Sciences, Korea). After 24 h, the media in AB12 cells was replaced with 1 ml of fresh RPMI containing compounds of interest at equipotent concentration of 5 × IC50 and incubated for 100 minutes. After removing the drug-containing media, the cells were trypsinized (0.5 ml), neutralized with 1 ml of RPMI, centrifuged (300 × g, 5 min) and counted. From each sample, 2 × 10^5 AB12 cells were seeded into Cellstar 6-well plates (Greiner Bio-One) (1 ml per well).
2 × 10^5 J774 macrophages were detached from a petri dish by scraping and added to AB12 cells into 6-well plates. AB12 cells and J774 macrophages were co-incubated for 16 h at 37°C and 5% CO2, detached by scraping, centrifuged (300 × g, 5 min), and the pellets were resuspended in PBS for immediate analysis using a CytoFLEX Flow Cytometer (Beckman Coulter, USA). The percentage of phagocytosis was determined by calculating the number of double-positive macrophages (Q2) over the total number of macrophages (Q2 + Q3). Dot plots […]
analysis of the flow cytometry data. […]
concentrations for 100 min at 37 °C. […] Cell death was evaluated by flow cytometry using a CytoFLEX Flow Cytometer equipped with a 488 nm laser and a 638 nm laser (Beckman Coulter, Brea, CA, USA). The cells were excited by the 488 nm laser, and fluorescence emissions were detected at 525/40 nm for FITC (Annexin V) and at 610/20 nm for ECD (PI).
The percentage of necrosis was determined by calculating the sum of cells in Q1 and Q2. […]

With F[P-](F)(F)(F)(F)F.c1cc[c]2c(c1)-c1cccc[n+]1[Au-]21[S]C(=[N+]2CCCCCC2)[S]1 (centres unmarked) [1G] the IC50 [1] was 1400 ± 200 nM, the IC50 [2] was 720 ± 140 nM and the IC50 [3] was 220 ± 30 nM. The IC50 [4] was 1100 ± 100 nM, the IC50 [5] was 500 ± 120 nM and the IC50 [6] was 500 ± 40 nM. For the same compound, the “sensitivity of THP-1-derived macrophages” value [7] was “highly sensitive” and the IC50 [8] was 430 ± 90 nM.
Work on COC1c2cccc[c]2[Au-]2([S]C(=[N+]3CCCCC3)[S]2)[n+]2ccccc21.F[P-](F)(F)(F)(F)F (racemic) [4H] yielded an IC50 [1] of 1700 ± 300 nM, an IC50 [2] of 2800 ± 300 nM and an IC50 [3] of 2400 ± 200 nM. It also gave an IC50 [4] of 220 ± 30 nM, an IC50 [5] of 2500 ± 100 nM and an IC50 [6] of 330 ± 80 nM. For the same compound, the IC50 [8] was 680 ± 140 nM and the LogP [9] was 2.33.
For CCCC[N+](CCCC)=C1[S][Au-]2([S]1)[c]1ccccc1Nc1cccc[n+]12.F[P-](F)(F)(F)(F)F (centres unmarked) [5C], the IC50 [1] was 410 ± 60 nM, the IC50 [2] was 640 ± 140 nM and the IC50 [3] was 86 ± 22 nM. For the same compound, the IC50 [4] was 130 ± 30 nM, the IC50 [5] was 360 ± 70 nM and the IC50 [6] was 180 ± 30 nM. The IC50 [8] was 65 ± 15 nM, the phagocytosis rate [10] was 35% ± 9% and the “mice that developed tumors after vaccination” value [11] was “≈ 50%”.
F[P-](F)(F)(F)(F)F.c1cc[c]2c(c1)Cc1cccc[n+]1[Au-]21[S]C(=[N+]2CCCCC2)[S]1 (centres unmarked) [2H] showed an IC50 [1] of 5200 ± 1200 nM, an IC50 [2] of 8400 ± 1300 nM and an IC50 [3] of 2000 ± 500 nM. The IC50 [4] was 310 ± 80 nM, the IC50 [5] was 1900 ± 300 nM and the IC50 [6] was 300 ± 70 nM. The IC50 [8] was 2200 ± 500 nM and the LogP [9] was 2.56.
In the case of F[P-](F)(F)(F)(F)F.c1cc[c]2c(c1)-c1cccc[n+]1[Au-]21[S]C(=[N+]2CCCCC2)[S]1 (centres unmarked) [1H], the IC50 [1] is reported as 1100 ± 100 nM, the IC50 [2] is reported as 1400 ± 100 nM and the IC50 [3] is reported as 620 ± 120 nM. The IC50 [4] was 91 ± 18 nM, the “necrotic cell death (in words)” value (AB12 cells) was “did not result in significant necrotic cell death” and the IC50 [5] was 370 ± 100 nM. The IC50 [6] was 700 ± 90 nM, the IC50 [8] was 130 ± 30 nM and the “phagocytosis / ICD response (in words)” value [10] was “high levels of phagocytosis”. The LogP [9] was 2.45.
Work on COC1c2cccc[c]2[Au-]2([S]C(=[N+](Cc3ccccc3)Cc3ccccc3)[S]2)[n+]2ccccc21.F[P-](F)(F)(F)(F)F (racemic) [4D] yielded an IC50 [1] of 4100 ± 900 nM, an IC50 [2] of 4200 ± 700 nM and an IC50 [3] of 1700 ± 200 nM. The IC50 [4] was 2300 ± 100 nM, the IC50 [5] was 2300 ± 600 nM and the IC50 [6] was 2900 ± 700 nM. The IC50 [8] was 3200 ± 300 nM and the phagocytosis rate [10] was 35% ± 9%.
For F[P-](F)(F)(F)(F)F.c1ccc(C[N+](Cc2ccccc2)=C2[S][Au-]3([S]2)[c]2ccccc2Cc2cccc[n+]23)cc1 (centres unmarked) [2D], the IC50 [1] was 5400 ± 1300 nM, the IC50 [2] was 2400 ± 500 nM and the IC50 [3] was 2300 ± 700 nM. The IC50 [4] was 3900 ± 500 nM, the “necrotic cell death (in words)” value (AB12 cells) was “did not result in significant necrotic cell death” and the IC50 [5] was 2200 ± 400 nM. The IC50 [6] was 3000 ± 300 nM, the IC50 [8] was 2500 ± 400 nM and the “phagocytosis / ICD response (in words)” value [10] was “high levels of phagocytosis”.
In the case of CC[N+](CC)=C1[S][Au-]2([S]1)[c]1ccccc1Nc1cccc[n+]12.F[P-](F)(F)(F)(F)F (centres unmarked) [5B], the IC50 [1] is reported as 210 ± 60 nM, the IC50 [2] is reported as 300 ± 90 nM and the IC50 [3] is reported as 190 ± 50 nM. The IC50 [4] was 53 ± 2 nM, the IC50 [5] was 240 ± 20 nM and the IC50 [6] was 63 ± 19 nM. For the same compound, the “sensitivity of THP-1-derived macrophages” value [7] was “highly sensitive” and the IC50 [8] was 180 ± 50 nM.
